For data set [1], the target named is yeast Hsp90 ATPase (Saccharomyces cerevisiae, UniProt P02829). In words: Purified recombinant yeast Hsp90 ATPase activity. The format is biochemical. The following applies: in the absence and presence of NQO1. How it is done: In vitro testing was performed to verify that 19-substitutions prevent GSH conjugation of benzoquinone ansamycins (BQAs). Referring to FIG. 6, reactions were performed in 50 mM potassium phosphate buffer, pH 7.4 containing 50 μM benzoquinone ansamycin in the absence (solid bars) and presence (hatched bars) of 5 mM GSH. At the indicated times (GM series, 15 min; DMAG series, 3 hr; AAG series, 16 hr) the reactions were stopped and BQA concentrations were determined by HPLC. […] The 19-substituted benzoquinone ansamycins were also tested in vitro for inhibition of Hsp90. Referring to FIG. 7, purified recombinant yeast Hsp90 ATPase activity was measured in reactions with 19-substituted BQAs in the absence and presence of NADPH quinone oxidoreductase 1 (NQO1). Results are expressed as percent of DMSO control (mean±SD n=3).
The parent BQA's inhibited purified Hsp90 much more readily in the presence of NQO1 to generate the hydroquinone and this could be blocked by the inhibitor ES936. […] This could be blocked by the NQO1 inhibitor ES936.

Data set [2] deals with SHSY-5Y cells. Briefly: MTT growth inhibition assay in SHSY-5Y dopaminergic cells. The following applies: Homo sapiens, SH-SY5Y, read-out: SHSY-5Y IC50. It is filed as cell-based, human. How it is done:
The 19-substituted benzoquinone ansamycins were also tested in vitro for their ability to reduce the toxicity of BQAs to SH-SY5Y cells a dopaminergic model system of relevance to neurodegenerative disease. Referring to FIG. 9, toxicity of BQAs in SH-SY-5Y cells was measured using trypan blue exclusion (panel A), MTT growth inhibition assay (panel B) and annexin V/PI staining for apoptosis (panel C). Cells in A and C were treated with BQAs (5 μM) for 16 h; cells in B were treated with BQAs for 4 h then allowed to grow in drug-free medium for 72 h. […] The combination of these two properties are likely to be important to the neuroprotective properties of the 19-substituted BQAs.
Growth inhibition assays (MTT) were conducted in human SHSY-5Y cells following a 4 hr treatment with GA or 19Me-GA. Cell were allowed to grow for 72 hrs following drug treatment. The 19-methyl substituted compounds in all series were minimally toxic (see FIG. 12 for data with geldanamycin, MTT assay, results are expressed as the mean±SD, n=3).

Data set [3] deals with MiaPaCa2 human pancreatic cancer cells. In words: MTT growth inhibition in MiaPaCa2 cells. It is filed as cell-based. How it is done: (§1) The inventors also examined the ability of 19 BQAs to inhibit the growth of human pancreatic cancer cell lines (FIG. 16). For growth inhibition studies (MTT) cells were treated with drugs for 4 hr and then allowed to grow for 72 h. For biomarker studies MiaPaCa2 cells were treated with DMAG analogs (5 μM) for 24 hr. 19 BQAs inhibit the growth of human pancreatic cancer cell lines (FIG. 16A, 16B) and induce biomarkers of Hsp90 inhibition (FIG. 16C) using isogenic Panc-1 (NQO1 null) and Panc-1/C5 (NQO1 expressing) cell lines.

Data set [4] concerns MDA468/NQ16 breast cancer cells. Briefly: MTT growth inhibition in isogenic MDA468/NQ16 and MDA468 cells. It is filed as cell-based, human. As to conditions: MDA468/NQ16, 4 hours treatment, 72 h growth, MTT. The method, then: The 19-substituted benzoquinone ansamycins were also tested in vitro for their ability to inhibit growth similar to DMAG in human breast cancer cells (FIG. 10). MDA468/NQ16 breast cancer cells were treated with 19-substituted DMAG analogs for 4 hours, after which drug-containing media was removed and cells were allowed to grow for an additional 72 h. Cell viability was determined using the MTT assay.
(§2) The ability of 19-substituted BQAs to induce growth inhibition was measured by MTT in isogenic MDA468 (null NQO1) and MDA468/NQ16 (high NQO1) cells. […] Biomarkers of Hsp90 inhibition (Raf-1, AKT degradation and Hsp70 induction) were more pronounced in MDA468/NQ16 cells compared to MDA468 cells following treatment with 19-substituted DMAG analogs.

Data set [5] has as its system primary mouse hepatocytes. In words: Hepatotoxicity in primary mouse hepatocytes (MTT). It is filed as cell-based. As to conditions: 4 hr, confirmed by Trypan Blue and AST leakage. The method, then:
The inventors next tested the effect of 19-substitution of BQAs on hepatotoxicity in isolated hepatocyte systems. Isolated primary mouse hepatocytes were grown on coated 96-well plates and exposed to BQAs for 4 h after which their survival was determined using the MTT assay.
As described above, a major obstacle in the development of BQA as drugs has been their ability to induce hepatotoxicity in preclinical studies. […] Toxicity was measured using MTT assay and confirmed using Trypan Blue and AST leakage. The data shown in FIG. 19 were generated using MTT analysis but similar readouts were obtained using either trypan blue exclusion or leakage of AST from hepatocytes.

Data set [6] concerns BT474 human breast cancer cells. In words: MTT growth inhibition in BT474 cells. The following applies: BT474, 4 hr treatment, MTT 72 h later. It is filed as cell-based. The method, then: (§3) The inventors extended the studies with 19-substituted DMAG analogs to include the Her2^+ human breast cancer cell line BT474 (FIG. 15). Growth inhibition (FIG. 15, left panel) was measured in BT474 cells following treatment with analogs for 4 hr. Growth inhibition (MTT) was performed 72 h following drug treatments. Biomarkers of Hsp90 inhibition, Raf-1, AKT, CDK4 and Her2 degradation as well as Hsp70 induction were measured by immunoblot analysis in human BT474 breast cancer cells following treatment with 19-substituted DMAG analogs (5 μM) for 24 hr ([…], left panel).

For data set [7], the system named is Hsp90 (Raf-1, AKT, CDK4, Her2 degradation, Hsp70 induction). In words: Immunoblot biomarkers of Hsp90 inhibition in BT474 cells. The format is cell-based, human. As to conditions: cell line not given. How it is done:
as §3

Data set [8] relates to Hsp90 (Raf-1, AKT degradation and Hsp70 induction). Briefly: Biomarkers of Hsp90 inhibition in MDA468/NQ16 cells. It is filed as cell-based, human. As to conditions: MDA468/NQ16 (high NQO1) cells. How it is done: as §2
For data set [9], the system named is human pancreatic cancer cell lines (Panc-1, Panc-1/C5). Briefly: MTT growth inhibition in human pancreatic cancer cell lines. The format is cell-based. How it is done:
as §1

For data set [10], the system named is Hsp90. Briefly: Biomarkers of Hsp90 inhibition in MiaPaCa2 cells. It is filed as cell-based, human. The following applies: 5 μM, 24 hr (FIG. 16C). How it is done:
as §1

The test system of data set [11] is p23/Hsp90 interaction. Briefly: Immunoprecipitation of p23 and Hsp90 in BT474 cells. It is filed as cell-based, human. As to conditions: 5 μM, 24 hr. How it is done:
Forward and reverse immunoprecipitation studies were performed in BT474 cells treated with DMAG analogs (5 μM) for 24 hr.

Data set [12] relates to cdc37/Hsp90 interaction. In words: Immunoprecipitation of cdc37 with Hsp90 in BT474 and MDA468/NQ16 cells. The format is cell-based, human. As to conditions: 5 μM, 24 hr. The method, then:
Similarly, the association of cdc37 with hsp90 was examined in BT474 cells and MDA468/NQ16 cells by immunoprecipitation following treated with analogs (5 μM) for 24 hr. […] This finding is consistent with X ray data using purified Hsp90 showing that the larger 19-phenyl substituent causes greater conformational change in the Hsp90 structure than smaller 19-substituents (not shown). This also correlates with the differential effect of 19-phenyl and 19-methyl DMAG on clients chaperoned by cdc37 to Hsp90 which include Raf1, Akt, cdc2 and cdk4 (FIGS. 8,9,10).

The target in data set [13] is purified human NQO1 (Homo sapiens, UniProt P15559). In words: Reduction by purified recombinant human NQO1 (HPLC). The format is biochemical. The following applies: 50 μM, NADH 200 μM, rhNQO1 5 μg, 15 min; blocked by ES936. The method, then:
To confirm bioreduction by NQO1 19Ph-GA was incubated with purified human NQO1 and analyzed by HPLC. […] Reactions with purified rhNQO1 (FIG. 14, panels A and B): 19Ph-GA (50 μM) was incubated with NADH (200 μM) in the absence and presence of purified rhNQO1 (5 μg). After 15 min reactions were stopped and analyzed by HPLC. Panel A; chromatograph overlays of 19Ph-GA, NADH (black) and 19Ph-GA, NADH and NQO1 (red). […] Panel B; chromatograph of 19Ph-GA, NADH, NQO1 and ES936. No 19Ph-GA hydroquinone formation is observed in the presence of the NQO1 inhibitor ES936.

Sequence of yeast Hsp90 ATPase (P02829 whole entry): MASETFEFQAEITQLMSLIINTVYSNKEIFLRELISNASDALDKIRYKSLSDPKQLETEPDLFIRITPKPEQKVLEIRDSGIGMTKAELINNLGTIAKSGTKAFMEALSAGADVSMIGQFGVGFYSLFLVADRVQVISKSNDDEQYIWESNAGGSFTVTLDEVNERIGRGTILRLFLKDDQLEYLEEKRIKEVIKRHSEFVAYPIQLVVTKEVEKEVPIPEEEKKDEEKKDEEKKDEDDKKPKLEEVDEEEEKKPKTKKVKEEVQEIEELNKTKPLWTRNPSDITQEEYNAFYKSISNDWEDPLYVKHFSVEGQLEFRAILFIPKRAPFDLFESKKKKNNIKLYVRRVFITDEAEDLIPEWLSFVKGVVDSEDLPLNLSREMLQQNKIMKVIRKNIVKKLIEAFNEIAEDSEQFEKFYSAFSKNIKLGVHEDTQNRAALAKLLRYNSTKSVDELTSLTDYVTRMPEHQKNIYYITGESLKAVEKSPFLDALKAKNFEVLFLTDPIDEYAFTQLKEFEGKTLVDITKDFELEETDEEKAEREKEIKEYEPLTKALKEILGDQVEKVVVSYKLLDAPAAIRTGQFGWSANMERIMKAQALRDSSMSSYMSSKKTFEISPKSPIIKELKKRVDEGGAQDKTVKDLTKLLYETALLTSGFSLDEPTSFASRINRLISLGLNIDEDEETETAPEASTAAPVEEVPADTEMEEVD
Sequence of purified human NQO1 (P15559 whole entry): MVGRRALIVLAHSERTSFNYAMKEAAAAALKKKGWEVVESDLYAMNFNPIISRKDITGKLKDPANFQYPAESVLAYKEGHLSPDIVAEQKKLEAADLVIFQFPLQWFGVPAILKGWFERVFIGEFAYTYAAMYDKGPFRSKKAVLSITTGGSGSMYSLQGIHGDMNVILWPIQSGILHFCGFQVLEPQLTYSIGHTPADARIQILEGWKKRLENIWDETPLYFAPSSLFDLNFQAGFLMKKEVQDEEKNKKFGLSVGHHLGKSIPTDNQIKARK

For `C=CCNc1c(O)cc2c(O)c1C[C@@H](C)C[C@H](OC)[C@H](O)[C@@H](C)/C=C(\C)[C@H](OC(N)=O)[C@@H](OC)/C=C\C=C(/C)C(=O)N2` [17AAG hydroquinone], the “inhibition of Hsp90 ATPase activity” value in data set [1] is “inhibition of yeast Hsp90 ATPase activity”.

As a reminder, the IC50 is the concentration at which inhibition is half-maximal. With `CO[C@H]1/C=C\C=C(/C)C(=O)NC2=C(c3ccccc3)C(=O)C(NCCN(C)C)=C(C[C@@H](C)C[C@H](OC)[C@H](O)[C@@H](C)/C=C(\C)[C@@H]1OC(N)=O)C2=O` [19Ph-DMAG, (4E,6Z,8S,9S,10E,12S,13R,14S,16R)-19-(2-(Dimethylamino)ethylamino)-13-hydroxy-8,14-dimethoxy-4,10,12,16-tetramethyl-3,20,22-trioxo-21-phenyl-2-azabicyclo[16.3.1]docosa-1 (21),4,6,10,18-pentaen-9-yl carbamate], the IC50 in [2] is above 20 µM. Besides, the IC50 in data set [3] (Homo sapiens, MIA PaCa-2, read-out: IC50 MiaPaCa2) was found to be 3 ± 0.6 µM. The “potency relative to 19Me-DMAG, growth inhibition” value in [3] (MiaPaCa2 cells) was “greater than 10 fold”. For the same compound, in [4], the “potency at killing breast cancer cells relative to DMAG” value is on record as “greater potency at killing breast cancer cells than DMAG”. In addition, the hepatotoxicity entry in data set [5] was “no toxicity was observed”. Besides, the growth inhibition result in [6] is given as “induced growth inhibition”. The “effects on clients chaperoned by cdc37 to Hsp90 (Raf1, Akt, cdc2, cdk4)” value in data set [7] was “marked”. For the same compound, in [8], the Hsp70 induction result is listed as “equal Hsp70 induction compared to DMAG”; the “Raf-1 and AKT degradation” value is “more pronounced Raf-1 and AKT degradation”. The “sensitivity of Panc-1/C5 (high NQO1) relative to NQO1-null Panc-1 cells” value in data set [9] (FIG. 16B) is listed as “more sensitive”. Also, the growth inhibitory activity result in [9] (human pancreatic cancer cell lines, 4 hr treatment, 72 h growth, MTT (FIG. 16A)) is listed as “marked growth inhibitory activity”. For the same compound, the “induction of biomarkers of Hsp90 inhibition” value in data set [10] is “pronounced induction of biomarkers of Hsp90 inhibition”. For the same compound, the “interaction of p23 and Hsp90” value in data set [11] is “disrupted the interaction of p23 and Hsp90”. Moreover, in [12], the “interaction of cdc37 with Hsp90” value was “disrupted the interaction of cdc37 with Hsp90”.

As to `COC1=C2C[C@@H](C)C[C@H](OC)[C@H](O)[C@@H](C)/C=C(\C)[C@H](OC(N)=O)[C@@H](OC)/C=C\C=C(/C)C(=O)NC(=C(c3ccccc3)C1=O)C2=O` [19Ph-GA, 19-phenylgeldanamycin], in [2], the IC50 was above 10 µM. Also, the “reduction to hydroquinone by NQO1” value in [13] was “reduced to the more polar 19Ph-GA hydroquinone”.

For the origin of these results see patent US9603829B2, “HSP90 inhibitors with modified toxicity” (THE REGENTS OF THE UNIVERSITY OF COLORADO, a body corporate, priority 2011, dated 2017).
